The text below walks through data of patent US20180065968A1, “NEW SUBSTITUTED TRIAZOLOPYRIMIDINES AS ANTI-MALARIAL AGENTS” (BOARD OF REGENTS OF THE UNIVERSITY OF TEXAS SYSTEM, priority 2015, published 2018).

The target in assay [1] is T1, pfDHODH (Plasmodium falciparum, UniProt Q08210).
T1 sequence (Q08210 24-569): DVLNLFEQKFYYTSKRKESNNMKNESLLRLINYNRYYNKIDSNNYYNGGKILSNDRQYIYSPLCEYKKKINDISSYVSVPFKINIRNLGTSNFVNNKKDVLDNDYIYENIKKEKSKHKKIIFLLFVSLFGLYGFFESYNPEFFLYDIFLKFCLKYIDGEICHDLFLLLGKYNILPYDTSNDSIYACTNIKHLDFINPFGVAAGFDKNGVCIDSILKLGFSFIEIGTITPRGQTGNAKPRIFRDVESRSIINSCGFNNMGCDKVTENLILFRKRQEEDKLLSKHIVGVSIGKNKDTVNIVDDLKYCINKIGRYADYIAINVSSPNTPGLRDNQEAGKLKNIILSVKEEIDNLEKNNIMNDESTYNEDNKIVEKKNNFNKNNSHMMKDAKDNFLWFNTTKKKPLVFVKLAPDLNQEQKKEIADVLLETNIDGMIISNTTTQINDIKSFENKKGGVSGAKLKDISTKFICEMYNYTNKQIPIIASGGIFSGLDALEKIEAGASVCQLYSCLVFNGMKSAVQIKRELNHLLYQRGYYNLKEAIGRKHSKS
The experiment in a line: biochemical. Particulars: recombinant enzyme, DCIP assay, IC50; read-out: PfDHODH. The procedure: The compounds of the invention were also assessed for inhibitory activity against recombinant DHODH from the indicated species. Recombinant enzymes were produced and purified from E. coli as His6 fusion proteins and purified by Ni^+2-agarose chromatography as described.
Data were collected on a Synergy H1 hybrid plate reader in 96 well plate format at 28° C., using a final assay volume of 200 μl. Rate data (v) were converted to μmoles/min using the molar extinction coefficient for DCIP. Compounds were prepared in stock solutions of DMSO. An initial 100 mM stock was generated and this was used to prepare a 3 fold dilution series in DMSO. A 1:100 dilution of DMSO stock was made into assay buffer to generate the final concentration in the assay mix.
Assay Conditions: DHODH (ET=5-10 nM), substrates (0.2 mM L-dihydroorotate and 0.02 mM CoQD), DCIP (0.12 mM) and assay buffer (100 mM HEPES, pH 8.0, 150 mM NaCl, 10% Glycerol, 0.1%Triton) at 20° C. Concentration of compounds of the invention was varied in a 3-fold dilution series (0.01-100 uM). All data were collected in triplicate.
Fitting was performed in Graph Pad Prism to determine the IC50. Reported error represents the 95% confidence interval of the fit or the standard deviation of the mean.

Assay [2] relates to P. falciparum Pf3D70087/N9. The experiment in a line: SCID mouse P. falciparum in vivo efficacy model. Further details: species or system P. falciparum in NOD-scid IL-2Rγnull (NSG) mice. Particulars: oral, starting day 3 post infection, NSG mice engrafted with human erythrocytes. The procedure:
Briefly, NOD-scid IL-2Rγnull (NSG) mice (Jackson Laboratory, USA) (23-36 g) engrafted with human erythrocytes as described were infected with 20×10^6 P. falciparum Pf3D70087/N9) generated in GlaxoSmithkline Tres Cantos (Spain) by intravenous injection. Compounds were administered orally in vehicle (saline solution for Chloroquine; 0.5% w/v sodium carboxymethylcellulose, 0.5% v/v benzyl alcohol, 0.4% v/v Tween 80 in water for triazolopyrimidine analogs). Compounds were administered at target doses ranging from 0.5 to 75 mg/kg (free base equivalent) starting on day 3 post infection. Formulation concentrations were measured to obtain the actual doses administered. Parasitemia was monitored by flow cytometry and the effective dose (ED90) was calculated as described in Jimenez-Diaz, 2009, Antimicrobial agents and chemotherapy, 53, 4533-4536.

The subject of assay [3] is P. falciparum clinical isolates. The experiment in a line: Ex vivo schizont maturation assay, clinical isolates. The format is cell-based. Particulars: Plasmodium falciparum; ex vivo schizont maturation, 35-56 hrs; isolates from Timika (Papua, Indonesia); read-out: P. falciparum clinical isolates IC50. The procedure:
(§1) To assess comparative activity between P. falciparum and P. vivax strains compounds were tested in an ex vivo parasite assay using Plasmodium isolates from patients who visited clinics in Timika (Papua, Indonesia). Parasites in this region are resistant to standard anti-malarials such as chloroquine. P. vivax can not be cultivated in vitro so the ex vivo assay is the only method to evaluate drug sensitivity. Patients with parasitemia between 2000 and 80,000 ul^−1 were eligible for recruitment into the study. Blood was collected by venipuncture, host white blood cells were removed and packed infected red blood cells were used for the ex vivo studies. Drug susceptibility was measured as previously described (Russell et al., 2008, Antimicrobial Agents Chemother., 52, 1040-1045; Marfurt et al., 2011, Antimicrobial Agents Chemother., 55, 961-966; Marfurt et al., 2011, Antimicrobial Agents Chemother., 55, 4461-4464). Briefly two hundred μl of a 2% hematocrit blood mixture, consisting of RPMI 1640 medium plus 10% AB+ human serum (P. falciparum) or McCoy's 5A medium plus 20% AB+ human serum (P. vivax) was added to each well of pre-dosed drug plates containing serial 2-fold dilutions of the anti-malarial compound. A candle jar was used to mature parasites at 37° C. for 35-56 hrs. […] Thick blood films made from each well were stained with 5% Giemsa for 30 min and examined microscopically. The number of schizonts per 200 asexual stage parasites was determined and normalized to the control well. Data were analyzed by nonlinear regression (WinNonLn 4.1) to determine the IC50 using the inhibitory sigmoid Emax model.
(§2) Drug plate quality was assured by running schizont maturation assays (two independent experiments) with the chloroquine-resistant strain K1 and the chloroquine-sensitive strain FC27. For microscopy slide reading QC, two randomly selected drugs per isolate were read by a second microscopist. […] If necessary, discrepant results were resolved by a third reading by an expert microscopist.

Assay [4] has as its system P. vivax clinical isolates. The description is as above. Type of assay: cell-based. The procedure: as §1, §2

As to `Cc1cc(Nc2ccc(C(F)(F)F)nc2)n2nc(C(C)(F)F)nc2n1` [Compound (1), 2-(1,1-difluoroethyl)-5-methyl-N-(6-(trifluoromethyl)pyridin-3-yl)-[1,2,4]triazolo[1,5-a]pyrimidin-7-amine], the IC50 stood at 30 nM in assay [1]; 151 nM in assay [3]; 175 nM in assay [4] (Plasmodium vivax, ex vivo schizont maturation, 35-56 hrs, isolates from Timika (Papua, Indonesia), read-out: P. vivax clinical isolates IC50). In assay [2], this molecule yielded an ED90 of 2.6 mg/kg per day. Also, the “comparative activity between P. falciparum and P. vivax” value in assay [4] (ex vivo parasite assay) is “equivalent activity on both P. falciparum and P. vivax”.
